Data from patent publication US20120202794A1 (priority 2011, published 2012).
Read-outs that look alike come from different tables or passages of the source.

Tests used:
[1] = Cell cytotoxicity assay (MTS), CC90 as reported in Table 1, cell line not stated; type: cell-based; conditions: human; MTS assay; 8 days incubation; cell line not given
How it was run: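 MTS read-out (490 nm, 2 h dye step) after 8-day exposure at 37° C. Huh7, HepG2, BxPC3 were seeded at 2×10^3 and CEM at 5×10^3 cells/well, with compound serially diluted from 100 μM. CC90 comes from comparison with untreated control wells.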

[2] = tested on: HCV Replicon 1b; assay: HCV inhibition assay, HCV replicon 1b (Clone A or ET-lunet cells; RT-PCR or luciferase reporter); type: cell-based; conditions: Hepatitis C virus, 96 h, read-out: Replicon 1b potency EC90
How it was run: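 Inhibition read either as luciferase signal (ET replicon) or as HCV 5′-NTR RNA by RT-PCR relative to rRNA, % = (1−2^−ΔΔCt)×100, against DMSO controls, giving EC50 and EC90. Cells: Clone A or ET-lunet, seeded 1500 or 3000/well, exposed 4 days at 37 °C, 5% CO2, 0.5% DMSO.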

[3] = HCV replicon 1b, 4 days incubation

Structure (SMILES) | CC90 at 8 days [1] [µM] | EC90 [2, 3] [µM] | EC90 [2] [µM]
O=C1N[C@@H](c2ccccc2)CN(C(=O)c2cc(-c3ccc(F)cc3)on2)[C@H]1c1cccs1 [Compound 471, (3R,6S)-4-(5-(4-fluorophenyl)isoxazole-3-carbonyl)-6-phenyl-3-(thiophen-2-yl)piperazin-2-one] | > 10 | 0.57 | –
O=C1N[C@@H](c2ccccc2)CN(C(=O)c2noc(-c3ccc(F)cc3)n2)[C@H]1c1cccs1 [Compound 472, (3R,6S)-4-(5-(4-fluorophenyl)-1,2,4-oxadiazole-3-carbonyl)-6-phenyl-3-(thiophen-2-yl)piperazin-2-one] | > 10 | 1.2 | –
CC(C)C[C@H]1C(=O)N[C@H](C2CCOCC2)CN1C(=O)c1noc(-c2ccc(F)cc2)n1 [Compound 473, (3S,6R)-4-(5-(4-fluorophenyl)-1,2,4-oxadiazole-3-carbonyl)-3-isobutyl-6-(tetrahydro-2H-pyran-4-yl)piperazin-2-one] | > 10 | > 10 | –
CC(C)C[C@H]1C(=O)N[C@@H](C2CCOCC2)CN1C(=O)c1noc(-c2ccc(F)cc2)n1 [Compound 474, (3S,6S)-4-(5-(4-fluorophenyl)-1,2,4-oxadiazole-3-carbonyl)-3-isobutyl-6-(tetrahydro-2H-pyran-4-yl)piperazin-2-one] | > 10 | 0.35 | –
CC(C)C[C@H]1C(=O)N[C@H](C2CCOCC2)CN1C(=O)[C@@H]1C[C@H]1c1ccc(F)cc1 [Compound 475, (3S,6R)-4-((1R,2R)-2-(4-fluorophenyl)cyclopropanecarbonyl)-3-isobutyl-6-(tetrahy-dro-2H-pyran-4-yl)piperazin-2-one] | > 10 | > 10 | –
CC(C)C[C@H]1C(=O)N[C@@H](C2CCOCC2)CN1C(=O)[C@@H]1C[C@H]1c1ccc(F)cc1 [Compound 476, (3S,6S)-4-((1R,2R)-2-(4-fluoro-phenyl)cyclopropanecarbonyl)-3-isobutyl-6-(tetrahydro-2H-pyran-4-yl)piperazin-2-one] | > 10 | 0.23 | –
CC(C)C[C@H]1C(=O)N[C@H](c2ccco2)CN1C(=O)c1cc(-c2ccc(F)cc2)on1 [Compound 483, (3S,6S)-4-(5-(4-fluorophenyl)isoxazole-3-carbonyl)-6-(furan-2-yl)-3-isobutyl-piperazin-2-one] | > 10 | > 10 | –
CC(C)C[C@H]1C(=O)N[C@@H](c2ccco2)CN1C(=O)c1cc(-c2ccc(F)cc2)on1 [Compound 484, (3S,6R)-4-(5-(4-fluorophenyl)isoxazole-3-carbonyl)-6-(furan-2-yl)-3-isobutylpiperazin-2-one] | > 10 | 0.18 | –
CC(C)C[C@H]1C(=O)N[C@H](c2ccc(Cl)s2)CN1C(=O)c1cc(-c2ccc(F)cc2)on1 [Compound 485, (3S,6S)-6-(5-chlorothiophen-2-yl)-4-(5-(4-fluorophenyl)isoxazole-3-carbonyl)-3-isobutylpiperazin-2-one] | > 10 | > 10 | –
CC(C)C[C@H]1C(=O)N[C@@H](c2ccc(Cl)s2)CN1C(=O)c1cc(-c2ccc(F)cc2)on1 [Compound 488, (3S,6R)-6-(5-chlorothiophen-2-yl)-4-(5-(4-fluorophenyl)isoxazole-3-carbonyl)-3-isobutylpiperazin-2-one] | > 10 | 0.7 | –
CCC[C@H]1C(=O)N[C@@H](c2cccs2)CN1C(=O)c1cc(-c2ccc(F)cc2)on1 [Compound 491, (3S,6R)-4-(5-(4-fluorophenyl)isoxazole-3-carbonyl)-3-propyl-6-(thiophen-2-yl)piper-azin-2-one] | > 10 | 0.25 | –
CCC[C@H]1C(=O)N[C@@H](c2cccs2)CN1C(=O)[C@@H]1C[C@H]1c1ccc(F)cc1 [Compound 495, (3S,6R)-4-((1R,2R)-2-(4-fluorophenyl)cyclopropanecarbonyl)-3-propyl-6-(thiophen-2-yl)piperazin-2-one] | > 10 | 0.29 | –
CC(C)C[C@H]1C(=O)N[C@@H](c2ccsc2Cl)CN1C(=O)[C@@H]1C[C@H]1c1ccc(F)cc1 [Compound 500, (3S,6S)-6-(2-chlorothiophen-3-yl)-4-((1R,2R)-2-(4-fluorophenyl)cyclopropane-carbonyl)-3-isobutylpiperazin-2-one] | > 10 | 0.022 | –
C=C[C@H]1CN(C(=O)c2cc(-c3ccc(F)cc3)on2)[C@@H](CC(C)C)C(=O)N1 [Compound 506, (3S,6S)-4-(5-(4-fluorophenyl)isoxazole-3-carbonyl)-3-isobutyl-6-vinylpiperazin-2-one] | > 10 | 1.05 | –
CC(C)C[C@H]1C(=O)N[C@@H](C(=O)N(C)C)CN1C(=O)c1cc(-c2ccc(F)cc2)on1 [Compound 507, (2R,5S)-4-(5-(4-fluorophenyl)isoxazole-3-carbonyl)-5-isobutyl-N,N-dimethyl-6-oxopiperazine-2-carboxamide] | > 10 | 0.84 | –
CNC(=O)[C@H]1CN(C(=O)c2cc(-c3ccc(F)cc3)on2)[C@@H](CC(C)C)C(=O)N1 [Compound 508, (2R,5S)-4-(5-(4-fluorophenyl)isoxazole-3-carbonyl)-5-isobutyl-N-methyl-6-oxopiperazine-2-carboxamide] | > 10 | > 10 | –
CC(C)C[C@H]1C(=O)N[C@@H](c2ncco2)CN1C(=O)c1cc(-c2ccc(F)cc2)on1 [Compound 510, (3S,6R)-4-(5-(4-fluorophenyl)isoxazole-3-carbonyl)-3-isobutyl-6-(oxazol-2-yl)piperazin-2-one] | > 10 | > 10 | –
CC(C)C[C@H]1C(=O)N[C@@H](c2ccccc2)CN1C(C)c1cc(-c2ccc(F)cc2)on1 (stereo partly drawn) [Compound 511, (3S,6S)-4-(1-(5-(4-fluorophenyl)isoxazol-3-yl)ethyl)-3-isobutyl-6-phenylpiperazin-2-one] | > 10 | 0.45 | –
CC(C)C[C@H]1C(=O)N[C@@H](c2cnco2)CN1C(=O)c1cc(-c2ccc(F)cc2)on1 [Compound 516, (3S,6R)-4-(5-(4-fluorophenyl)isoxazole-3-carbonyl)-3-isobutyl-6-(oxazol-5-yl)piperazin-2-one] | > 10 | – | 0.11
CC(C)C[C@H]1C(=O)N[C@@H](c2cnco2)CN1C(=O)[C@@H]1C[C@H]1c1ccccc1 [Compound 517, (3S,6R)-3-isobutyl-6-(oxazol-5-yl)-4-((1R,2R)-2-phenylcyclopropane-carbonyl)piperazin-2-one] | > 10 | 0.19 | –
CC(C)C[C@H]1C(=O)N[C@@H](c2cnco2)CN1C(=O)c1noc(-c2ccc(F)cc2)n1 [Compound 518, (3S,6R)-4-(5-(4-fluorophenyl)-1,2,4-oxadiazole-3-carbonyl)-3-isobutyl-6-(oxazol-5-yl)piperazin-2-one] | > 10 | 0.058 | –
CC(C)C[C@H]1C(=O)N[C@@H](c2cnco2)CN1C(=O)c1cc(-c2ccc(F)cc2)no1 [Compound 519, (3S,6R)-4-(3-(4-fluorophenyl)isoxazole-5-carbonyl)-3-isobutyl-6-(oxazol-5-yl)piperazin-2-one] | > 10 | 0.11 | –
CC(C)C[C@H]1C(=O)N[C@@H](c2cnco2)CN1C(=O)/C=C/c1ccc(F)cc1F [Compound 520, (3S,6R)-4-((E)-3-(2,4-difluorophenyl)acryloyl)-3-isobutyl-6-(oxazol-5-yl)piperazin-2-one] | > 10 | 0.47 | –
CC(C)C[C@H]1C(=O)N[C@@H](c2cnco2)CN1C(=O)c1cc(-c2ccc(F)cc2F)on1 [Compound 522, (3S,6R)-4-(5-(2,4-difluorophenyl)isoxazole-3-carbonyl)-3-isobutyl-6-(oxazol-5-yl)piperazin-2-one] | > 10 | 0.27 | –
CC(C)C[C@H]1C(=O)N[C@@H](c2ccc[nH]2)CN1C(=O)c1cc(-c2ccc(F)cc2)on1 [Compound 523, (3S,6R)-4-(5-(4-fluorophenyl)isoxazole-3-carbonyl)-3-isobutyl-6-(1H-pyrrol-2-yl)piperazin-2-one] | > 10 | 1.06 | –
CC(C)C[C@H]1C(=O)N[C@H](c2ccc[nH]2)CN1C(=O)c1cc(-c2ccc(F)cc2)on1 [Compound 524, (3S,6S)-4-(5-(4-fluorophenyl)isoxazole-3-carbonyl)-3-isobutyl-6-(1H-pyrrol-2-yl)piperazin-2-one] | > 10 | > 10 | –
CC(C)C[C@H]1C(=O)N[C@@H](c2ccccc2)N1C(=O)c1cc(-c2ccc(F)cc2)on1 [Compound 528, (2R,5S)-1-(5-(4-fluorophenyl)isoxazole-3-carbonyl)-5-isobutyl-2-phenylimidazolidin-4-one] | > 10 | > 10 | –
CC(C)C[C@H]1C(=O)N[C@H](c2ccccc2)N1C(=O)c1cc(-c2ccc(F)cc2)on1 [Compound 529, (2S,5S)-1-(5-(4-fluorophenyl)isoxazole-3-carbonyl)-5-isobutyl-2-phenylimidazolidin-4-one] | > 10 | > 10 | –
CC(C)C[C@H]1C(=O)N[C@@H](c2ccccc2)N1C(=O)[C@H]1C[C@@H]1c1ccccc1 [Compound 530, (2R,5S)-5-isobutyl-2-phenyl-1-((1S,2S)-2-phenylcyclopropanecarbonyl)imidazolidin-4-one] | > 10 | > 10 | –
CC(C)C[C@H]1C(=O)N[C@@H](c2ccccc2)N1C(=O)[C@H]1C[C@@H]1c1ccc(F)cc1 [Compound 532, (2R,5S)-1-((1S,2S)-2-(4-fluorophenyl)cyclopropanecarbonyl)-5-isobutyl-2-phenyl-imidazolidin-4-one] | > 10 | > 10 | –
